Laboratory results: patent US6737383B1, “Herbicidal oxadiazolidines” (priority 1999, dated 2004)

Assays:
[1] = system: bedstraw; experiment: Test B pre/postemergence bedstraw; format: in vivo, Galium aparine; conditions: Preemergence
Description: (§1) Seeds of bedstraw (Galium aparine), blackgrass (Alopecurus myosuroides), surinam grass (Brachiaria decumbens), cocklebur (Xanthium strumarium), corn (Zea mays), crabgrass (Digitaria sanguinalis), giant foxtail (Setaria faberii), morningglory (Ipomoea hederacea), pigweed (Amaranthus retroflexus), rape (Brassica napus), soybean (Glycine max), sugar beet (Beta vulgaris), velvetleaf (Abutilon theophrasti), wheat (Triticum aestivum), wild oat (Avena fatua) and purple nutsedge (Cyperus rotundus) tubers were planted and treated preemnergence with test chemicals formulated in a non-phytotoxic solvent mixture which included a surfactant.
(§2) At the same time, these crop and weed species were also treated with postemergence applications of test chemicals formulated in the same manner. Plants ranged in height from 2 to 18 cm (1- to 4-leaf stage) for postemergence treatments. Plant species in the flood test consisted of rice (Oryza sativa), smallflower flatsedge (Cyperus difformis), duck salad (Heteranthera limosa) and bamyardgrass (Echinochloa crus-galli) grown to the 2-leaf stage for testing. Treated plants and controls were maintained in a greenhouse for twelve to sixteen days, after which all species were compared to controls and visually evaluated. Plant response ratings, summarized in Table B, are based on a scale of 0 to 10 where 0 is no effect and 10 is complete control. A dash (−) response means no test result.

[2] = system: blackgrass; experiment: Test B pre/postemergence blackgrass; format: in vivo, Alopecurus myosuroides
Description: as §1, §2

[3] = system: surinam grass; experiment: Test B pre/postemergence surinam grass; format: in vivo, Brachiaria decumbens
Description: as §1, §2

[4] = system: cocklebur; experiment: Test B pre/postemergence cocklebur; format: in vivo, Xanthium strumarium
Description: as §1, §2

[5] = system: corn; experiment: Test B pre/postemergence corn; format: in vivo, Zea mays
Description: as §1, §2

[6] = system: crabgrass; experiment: Test B pre/postemergence crabgrass; format: in vivo, Digitaria sanguinalis
Description: as §1, §2

[7] = system: giant foxtail; experiment: Test B pre/postemergence giant foxtail; format: in vivo, Setaria faberii
Description: as §1, §2

[8] = system: morningglory; experiment: Test B pre/postemergence morningglory; format: in vivo, Ipomoea hederacea
Description: as §1, §2

[9] = system: pigweed; experiment: Test B pre/postemergence pigweed; format: in vivo, Amaranthus retroflexus
Description: as §1, §2

[10] = system: rape; experiment: Test B pre/postemergence rape; format: in vivo, Brassica napus
Description: as §1, §2

[11] = system: soybean; experiment: Test B pre/postemergence soybean; format: in vivo, Glycine max
Description: as §1, §2

[12] = system: sugar beet; experiment: Test B pre/postemergence sugar beet; format: in vivo, Beta vulgaris
Description: as §1, §2

[13] = system: velvetleaf; experiment: Test B pre/postemergence velvetleaf; format: in vivo, Abutilon theophrasti
Description: as §1, §2

[14] = system: wheat; experiment: Test B pre/postemergence wheat; format: in vivo, Triticum aestivum
Description: as §1, §2

[15] = system: wild oat; experiment: Test B pre/postemergence wild oat; format: in vivo, Avena fatua
Description: as §1, §2

[16] = system: purple nutsedge; experiment: Test B pre/postemergence purple nutsedge; format: in vivo, Cyperus rotundus
Description: as §1, §2

[17] = Postemergence, Rate 62 g/ha, scale 0 to 10, 0 is no effect, 10 is complete control
[18] = Postemergence, Rate 125 g/ha, scale of 0 to 10 where 0 is no effect and 10 is complete control
[19] = Preemergence, Rate 125 g/ha, scale of 0 to 10 where 0 is no effect and 10 is complete control
[20] = Preemergence, Rate 250 g/ha, scale 0 (no effect) to 10 (complete control)
[21] = Rate 62 g/ha, Preemergence, scale 0 to 10
[22] = Rate 250 g/ha, Postemergence, scale 0 to 10, 0 is no effect, 10 is complete control
[23] = Rate 500 g/ha, Postemergence, scale 0 to 10, 0 is no effect, 10 is complete control
[24] = Rate 500 g/ha, Preemergence, scale 0 to 10 (0 no effect, 10 complete control)

COC1CCC(Cn2c(=O)on(C(=O)N(c3ccc(Cl)cc3)C(C)C)c2=O)=NO1 (stereo not drawn) [Compound 760]
2: B. signalgrass plant response rating ([3]; Preemergence, Rate 62 g/ha, scale of 0 to 10 where 0 is no effect and 10 is complete control) | Crabgrass plant response rating [6, 21] | Redroot pigweed plant response rating [9, 22] | Plant response rating, Rape [10, 17] | Rape plant response rating [10, 20] | Rape plant response rating [10, 22] | Wild oats plant response rating [15, 20]
1: Cocklebur plant response rating [4, 23] | Corn plant response rating [5, 22] | Corn plant response rating [5, 23] | Rape plant response rating [10, 18]
6: Bedstraw plant response rating ([1]; Rate 500 g/ha, scale 0 to 10 (0 no effect, 10 complete control)) | Blackgrass plant response rating [2, 20] | Crabgrass plant response rating [6, 18] | Sugarbeets plant response rating [12, 24] | Wild oats plant response rating [15, 24]
8: Giant foxtail plant response rating [7, 21]
9: Blackgrass plant response rating [2, 24] | Crabgrass plant response rating [6, 22] | Plant response rating, Giant foxtail [7, 19] | Redroot pigweed plant response rating [9, 20] | Redroot pigweed plant response rating [9, 24]
7: Plant response rating, Crabgrass [6, 19] | Giant foxtail plant response rating [7, 18] | Giant foxtail plant response rating [7, 22] | Giant foxtail plant response rating [7, 23] | Plant response rating, Redroot pigweed [9, 19] | Redroot pigweed plant response rating [9, 21]
10: B. signalgrass plant response rating [3, 20] | B. signalgrass plant response rating [3, 24] | Crabgrass plant response rating [6, 20] | Crabgrass plant response rating [6, 24] | Giant foxtail plant response rating [7, 20] | Giant foxtail plant response rating [7, 24]
4: Plant response rating, Blackgrass [2, 19] | Corn plant response rating [5, 24] | Plant response rating, Soybean [11, 17] | Soybean plant response rating [11, 22] | Wild oats plant response rating [15, 23]
5: B. signalgrass plant response rating [3, 23] | Plant response rating, Crabgrass [6, 17] | Rape plant response rating [10, 23] | Rape plant response rating [10, 24] | Soybean plant response rating [11, 23]
0: Plant response rating, Bedstraw ([1]; Rate 125 g/ha, scale of 0 to 10 where 0 is no effect and 10 is complete control) | Bedstraw plant response rating ([1]; Rate 250 g/ha, scale 0 (no effect) to 10 (complete control)) | Bedstraw plant response rating ([1]; Rate 62 g/ha, scale 0 to 10) | Plant response rating, Blackgrass [2, 17] | Blackgrass plant response rating [2, 18] | Blackgrass plant response rating [2, 21] | Blackgrass plant response rating [2, 22] | Plant response rating, B. signalgrass [3, 17] | B. signalgrass plant response rating [3, 18] | B. signalgrass plant response rating [3, 22] | Plant response rating, Cocklebur [4, 17] | Cocklebur plant response rating [4, 18] | Cocklebur plant response rating [4, 20] | Cocklebur plant response rating [4, 21] | Cocklebur plant response rating [4, 22] | Cocklebur plant response rating [4, 24] | Plant response rating, Corn [5, 17] | Corn plant response rating [5, 18] | Plant response rating, Corn [5, 19] | Corn plant response rating [5, 20] | Corn plant response rating [5, 21] | Plant response rating, Giant foxtail [7, 17] | Plant response rating, Morningglory [8, 19] | Morningglory plant response rating [8, 20] | Morningglory plant response rating [8, 21] | Morningglory plant response rating [8, 24] | Plant response rating, Redroot pigweed [9, 17] | Redroot pigweed plant response rating [9, 18] | Plant response rating, Rape [10, 19] | Rape plant response rating [10, 21] | Plant response rating, Soybean [11, 19] | Soybean plant response rating [11, 20] | Soybean plant response rating [11, 21] | Soybean plant response rating [11, 24] | Plant response rating, Sugarbeets [12, 17] | Sugarbeets plant response rating [12, 22] | Sugarbeets plant response rating [12, 23] | Plant response rating, Velvetleaf [13, 17] | Plant response rating, Velvetleaf [13, 19] | Velvetleaf plant response rating [13, 20] | Velvetleaf plant response rating [13, 21] | Velvetleaf plant response rating [13, 22] | Velvetleaf plant response rating [13, 24] | Plant response rating, Wheat [14, 17] | Plant response rating, Wheat [14, 19] | Wheat plant response rating [14, 20] | Wheat plant response rating [14, 21] | Wheat plant response rating [14, 22] | Wheat plant response rating [14, 23] | Plant response rating, Wild oats [15, 17] | Plant response rating, Wild oats [15, 19] | Wild oats plant response rating [15, 21] | Wild oats plant response rating [15, 22] | Plant response rating, Nutsedge [16, 17] | Nutsedge plant response rating [16, 18] | Plant response rating, Nutsedge [16, 19] | Nutsedge plant response rating [16, 20] | Nutsedge plant response rating [16, 21] | Nutsedge plant response rating [16, 22] | Nutsedge plant response rating [16, 23] | Nutsedge plant response rating [16, 24]
3: Blackgrass plant response rating [2, 23] | Plant response rating, B. signalgrass [3, 19] | Plant response rating, Morningglory [8, 17] | Morningglory plant response rating [8, 18] | Morningglory plant response rating [8, 22] | Morningglory plant response rating [8, 23] | Redroot pigweed plant response rating [9, 23] | Plant response rating, Sugarbeets [12, 19] | Sugarbeets plant response rating [12, 20] | Sugarbeets plant response rating [12, 21] | Velvetleaf plant response rating [13, 23] | Wheat plant response rating [14, 24]
